Results reported in US20230144436A1, “MUSCLE TARGETING COMPLEXES AND USES THEREOF FOR TREATING MYOTONIC DYSTROPHY” (Dyne Therapeutics, Inc., priority 2020, published 2023).

Tested on: DMPK
Assay: DMPK knockdown by transfected antisense oligonucleotides in DM1 C15 myotubes at 0.5 nM and 50 nM
Format: cell-based
Conditions: 72 hours; for Normalized DMPK Remaining: relative to vehicle control = 1.00
Description: Two hundred and thirty-six oligonucleotides for targeting DMPK were generated using in silico analysis. Each individual oligonucleotide was evaluated for their ability to target DMPK in cellulo at two doses—0.5 nM (low dose) and 50 nM (high dose).
Briefly, DM1 C15 immortalized myoblasts were cultured in T-75 flasks until near confluency (˜80% confluent). Myoblasts were then disrupted with trypsin and seeded into 96-well microplates at a density of 50,000 cells/well. Cells were allowed to recover overnight before the growth media was washed out and replaced with a no-serum media to induce differentiation into myotubes. Differentiation proceeded for seven days prior to treatment with DMPK-targeting oligonucleotides.
On day seven following induction of differentiation, DM1 C15 myotubes were transfected with an individual oligonucleotide using 0.3 μL of Lipofectamine MessengerMax per well. All oligonucleotides were tested at both 0.5 nM and 50 nM final concentrations in biological triplicates. After treatment with oligonucleotides, cells were incubated for 72 hours prior to being harvested for total RNA. cDNA was synthesized from the total RNA extracts and qPCR was performed to determine expression levels of DMPK in technical quadruplicate. All qPCR data were analyzed using a traditional […] method and were normalized to a plate-based negative control that comprised cells treated with vehicle control (0.3 μL/well Lipofectamine MessengerMax without any oligonucleotide). Results from these experiments are shown in Table 10. ‘Normalized DMPK Remaining’ for each antisense oligonucleotide in Table 10 refers to the expression level of DMPK in cell treated with said antisense oligonucleotide relative to the negative control that comprised cells treated with vehicle control (wherein the expression level of the negative control has been normalized to equal 1.00)

[1] = 0.5 nM oligonucleotide, qPCR, relative to vehicle control
[2] = 50 nM oligonucleotide, qPCR, relative to vehicle control

Substance	Percent DMPK Reduction [1] [%]	Normalized DMPK Remaining (0.5 nM oligonucleotide, qPCR)	Percent DMPK Reduction [2] [%]	Normalized DMPK Remaining (50 nM oligonucleotide, qPCR)	Percent DMPK Reduction (0.5 nM oligonucleotide) [%]	Normalized DMPK Remaining (0.5 nM oligonucleotide)	Percent DMPK Reduction (50 nM oligonucleotide) [%]	Normalized DMPK Remaining (50 nM oligonucleotide)
298 (UGCUUCAUCUUCACUACCGC; chemistry not given here) [compound 298]	28.82	0.71	60.24	0.40	–	–	–	–
322 (GCUCAGGCUCUGCCGGGUGA; chemistry not given here) [compound 322]	25.69	0.74	60.71	0.39	–	–	–	–
352 (AAAUACCGAGGAAUGUCGGG; chemistry not given here) [compound 352]	11.25	0.89	50.91	0.49	–	–	–	–
333 (AUGGCAUACACCUGGCCCGU; chemistry not given here) [compound 333]	14.31	0.86	49.63	0.50	–	–	–	–
445 (GAGGGCCUUUUAUUCGCGAG; chemistry not given here) [compound 445]	–	–	–	–	8.23	0.92	62.21	0.38
410 (UACAGGUAGUUCUCAUCCUG; chemistry not given here) [compound 410]	–	–	–	–	19.83	0.80	72.51	0.27
402 (GACAAUCUCCGCCAGGUAGA; chemistry not given here) [compound 402]	–	–	–	–	23.70	0.76	49.82	0.50
427 (UUGUUCAUGAUCUUCAUGGC; chemistry not given here) [compound 427]	–	–	–	–	14.13	0.86	45.23	0.55
423 (GGCUCAGGCUCUGCCGGGUG; chemistry not given here) [compound 423]	–	–	–	–	7.38	0.93	65.82	0.34
373 (GGGACAGACAAUAAAUACCG; chemistry not given here) [compound 373]	27.19	0.73	50.50	0.49	–	–	–	–
338 (CGGACGGCCCGGCUUGCUGC; chemistry not given here) [compound 338]	5.42	0.95	30.41	0.70	–	–	–	–
461 (CGGAGACCAUCCCAGUCGAG; chemistry not given here) [compound 461]	–	–	–	–	14.08	0.86	79.93	0.20
375 (CGGCUCAGGCUCUGCCGGGU; chemistry not given here) [compound 375]	17.97	0.82	69.03	0.31	–	–	–	–
424 (CCAUUCACCAACACGUCCCU; chemistry not given here) [compound 424]	–	–	–	–	39.26	0.61	86.83	0.13
376 (GGCUCCUGGGCGGCGCCAGA; chemistry not given here) [compound 376]	0.05	1.00	96.23	0.04	–	–	–	–
357 (CCUCAGCCUCUGCCGCAGGG; chemistry not given here) [compound 357]	10.87	0.89	55.22	0.45	–	–	–	–
460 (GGUCCAGCAGGAUGUUGUCG; chemistry not given here) [compound 460]	–	–	–	–	31.78	0.68	79.93	0.20
385 (GUUGGCCGGCGUGGGCCACC; chemistry not given here) [compound 385]	–	–	–	–	-1.82	1.02	43.57	0.56
348 (AUGAUCUUCAUGGCAUACAC; chemistry not given here) [compound 348]	12.76	0.87	39.97	0.60	–	–	–	–
444 (GCGUCACCUCGGCCUCAGCC; chemistry not given here) [compound 444]	–	–	–	–	20.02	0.80	81.27	0.19
468 (CGAGAGCAGCGCAAGUGAGG; chemistry not given here) [compound 468]	–	–	–	–	-2.19	1.02	37.11	0.63
469 (CAGGGAAAGCGCCUCCGAUA; chemistry not given here) [compound 469]	–	–	–	–	11.10	0.89	91.59	0.08
250 (CGGAUGGCCUCCAUCUCCCG; chemistry not given here) [compound 250]	28.92	0.71	55.57	0.44	–	–	–	–
273 (CUGUGCACGUAGCCAAGCCG; chemistry not given here) [compound 273]	25.67	0.74	70.10	0.30	–	–	–	–
341 (AGGGCGUCUGCCCAUAGAAC; chemistry not given here) [compound 341]	13.23	0.87	58.98	0.41	–	–	–	–
446 (AGCGGCAGAGAGAGGUGCUC; chemistry not given here) [compound 446]	–	–	–	–	19.75	0.80	90.71	0.09
303 (CCGUUCCAUCUGCCCGCAGC; chemistry not given here) [compound 303]	31.74	0.68	77.46	0.23	–	–	–	–
371 (GUGGAAUCCGCGUAGAAGGG; chemistry not given here) [compound 371]	30.55	0.69	49.34	0.51	–	–	–	–
476 (AGCGUCACCUCGGCCUCAGC; chemistry not given here) [compound 476]	–	–	–	–	22.10	0.78	64.70	0.35
